Test systems include KM12 colon; SW-620 colon; UO-31 renal; K-562 leukemia; CAKI-1 renal; LOX IMVI melanoma; M14 melanoma; HOP-92 NSCLC; SR leukemia; RXF 393 renal.
Common to all, as to assay: NCI-60 cell line screen, 48 h

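Where inhibition never reached the appropriate level, the endpoint shown equals the highest concentration tested. Otherwise, values were interpolated linearly from a five-concentration, 48-hour dose response in 96-well plates. GI50 = concentration required for 50% inhibition of growth. TGI: concentration producing complete growth inhibition.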

On to `COc1ccc2c3c(ccc2c1)NC(C(=O)O)CC3` (stereo not given), for which the TGI in the assay on KM12 colon, with SW-620 colon, in the assay on UO-31 renal, with K-562 leukemia, with CAKI-1 renal and in the assay on LOX IMVI melanoma was over 100 µM in each case. The TGI in the assay on M14 melanoma is over 100 µM; in the assay with HOP-92 NSCLC it was over 100 µM; in the assay on SR leukemia, 58.4 µM; in the assay with RXF 393 renal, over 100 µM.

With `O=C(/C=C/c1ccccc1)Nc1ncc(Cc2ccccc2)s1`, the GI50 in the assay with KM12 colon was 0.149 µM; in the assay on SW-620 colon, 0.144 µM; in the assay on UO-31 renal, 0.463 µM; in the assay on K-562 leukemia it was 0.0624 µM; in the assay with CAKI-1 renal, 0.0902 µM; in the assay on LOX IMVI melanoma, 0.139 µM. In addition, the GI50 is 0.114 µM with M14 melanoma, 4.72 µM in the assay on HOP-92 NSCLC, 0.0501 µM in the assay on SR leukemia and 0.267 µM in the assay with RXF 393 renal. Further, the TGI was 13 µM in the assay with KM12 colon; over 100 µM in the assay on SW-620 colon; 23.3 µM in the assay on UO-31 renal; over 37.1 µM in the assay on K-562 leukemia; over 50.2 µM in the assay with CAKI-1 renal; over 23.2 µM with LOX IMVI melanoma. Besides, the TGI with M14 melanoma is 3.03 µM; with HOP-92 NSCLC, over 84.8 µM; in the assay with SR leukemia, 10.2 µM; in the assay with RXF 393 renal it was 1.59 µM.

Regarding `CCN(CC)c1ccc(CNc2cc(C)nc3ccc(OC)cc23)cc1`, the GI50 with KM12 colon was 3.1 µM; with SW-620 colon it was 1.75 µM; with UO-31 renal it was 1.75 µM; with K-562 leukemia it was 1.37 µM; in the assay on CAKI-1 renal it was 1.89 µM; in the assay with LOX IMVI melanoma it was 1.67 µM. The GI50 in the assay with M14 melanoma is 1.89 µM; in the assay with HOP-92 NSCLC, 2 µM; in the assay on SR leukemia it was 1.87 µM; in the assay on RXF 393 renal, 2.02 µM. Besides, the TGI in the assay with KM12 colon was 11.6 µM; in the assay with SW-620 colon, 3.47 µM; with UO-31 renal it was 6.23 µM; in the assay with K-562 leukemia, 4.34 µM; with CAKI-1 renal, 10.5 µM; in the assay on LOX IMVI melanoma, 3.47 µM. Also, the TGI with M14 melanoma came out at 3.7 µM; with HOP-92 NSCLC it was 6.26 µM; in the assay with SR leukemia, 4.56 µM; in the assay with RXF 393 renal, 3.87 µM.

`O=C(NCCN1CCOCC1)Nc1nc2ccc(Sc3nnc4ccc(-c5ccc(F)cc5)nn34)cc2s1`: the GI50 in the assay with KM12 colon is 0.571 µM; with UO-31 renal it was over 100 µM; with K-562 leukemia it was 2.31 µM; with HOP-92 NSCLC, 3.32 µM; with SR leukemia, 5.04 µM; with RXF 393 renal, 0.522 µM. Also, the TGI in the assay with KM12 colon is over 100 µM; with SW-620 colon, over 100 µM; in the assay with UO-31 renal, over 100 µM; with K-562 leukemia, over 100 µM; with CAKI-1 renal, over 100 µM; in the assay on LOX IMVI melanoma it was over 42.3 µM. Also, the values for the TGI in the assay with M14 melanoma, with HOP-92 NSCLC and with SR leukemia were over 38.8 µM, over 100 µM and over 100 µM, respectively.

Take `O=C(CC(O)c1cccnc1)CC(O)c1cccnc1` (stereo not given): the TGI was 26.7 µM in the assay on KM12 colon; 19.6 µM with SW-620 colon; 32.5 µM in the assay on UO-31 renal; over 51.5 µM in the assay with K-562 leukemia; 35.9 µM in the assay on CAKI-1 renal; 15.4 µM with LOX IMVI melanoma. For the same molecule, the TGI with M14 melanoma is 27.8 µM; in the assay on HOP-92 NSCLC it was 34.5 µM; in the assay on SR leukemia, over 100 µM; with RXF 393 renal, 32.1 µM.

As for `Nc1ncnc2c1ncn2C1OC(CO)CC1O` (stereo not given), the TGI was over 100 µM in the assay on KM12 colon; over 100 µM in the assay on SW-620 colon; over 100 µM in the assay on UO-31 renal; 42.8 µM in the assay on K-562 leukemia; over 100 µM in the assay with CAKI-1 renal; 70.8 µM in the assay on LOX IMVI melanoma. Besides, the TGI in the assay with M14 melanoma, in the assay on HOP-92 NSCLC, in the assay with SR leukemia and in the assay with RXF 393 renal was over 100 µM in each case.

For `COC(=O)c1ccc(CS(=O)(=O)c2ccccc2)cc1`, the TGI in the assay with KM12 colon, with SW-620 colon, with UO-31 renal, in the assay on K-562 leukemia, in the assay on CAKI-1 renal and in the assay on LOX IMVI melanoma was over 100 µM each time. Moreover, the TGI in the assay on M14 melanoma, with HOP-92 NSCLC, with SR leukemia and in the assay with RXF 393 renal was over 100 µM each time.

In the case of `COc1ccccc1CN=C1NC(=O)/C(=C/c2ccc3ncccc3c2)S1`, the GI50 was 6.18 µM in the assay on KM12 colon; 4.54 µM in the assay with SW-620 colon; 7.37 µM with UO-31 renal; 8.4 µM in the assay on K-562 leukemia; 6.84 µM in the assay with CAKI-1 renal; 7.38 µM in the assay with LOX IMVI melanoma. In addition, the GI50 with M14 melanoma is 14.5 µM; in the assay with HOP-92 NSCLC, 6.24 µM; in the assay with SR leukemia it was 1.87 µM; in the assay on RXF 393 renal, 8.75 µM. The TGI with KM12 colon is over 16.9 µM; in the assay with SW-620 colon it was over 25 µM; in the assay on UO-31 renal it was over 21.7 µM; in the assay on K-562 leukemia it was over 25 µM; in the assay on CAKI-1 renal, over 25 µM; in the assay with LOX IMVI melanoma, over 25 µM. Besides, the TGI with M14 melanoma was over 25 µM; with HOP-92 NSCLC, 22 µM; in the assay with SR leukemia, over 17.9 µM; in the assay on RXF 393 renal it was over 25 µM.

Regarding `C=C(c1ccc(OC)c(/C=C/C(=O)c2cc(OC)c(OC)c(OC)c2)c1)c1cc(OC)c(OC)c(OC)c1`, the GI50 in the assay on KM12 colon was 1.16 µM; in the assay with SW-620 colon, 0.6 µM; in the assay with UO-31 renal, 1.07 µM; with K-562 leukemia, 0.922 µM; with CAKI-1 renal, 1.28 µM; in the assay with LOX IMVI melanoma it was 0.582 µM. In addition, the GI50 with M14 melanoma was 1.59 µM; with HOP-92 NSCLC, 1.14 µM; with SR leukemia it was 0.46 µM; in the assay with RXF 393 renal, 1.11 µM. Moreover, the TGI worked out at 2.72 µM with KM12 colon; 2.38 µM in the assay on SW-620 colon; 2.34 µM with UO-31 renal; 10.7 µM with K-562 leukemia; 10.5 µM with CAKI-1 renal; 1.95 µM in the assay with LOX IMVI melanoma. For the same molecule, the TGI with M14 melanoma stood at 4.43 µM; with HOP-92 NSCLC, 6.9 µM; in the assay with SR leukemia, 8.79 µM; in the assay on RXF 393 renal it was 2.62 µM.

These data come from PubChem BioAssay (NCI).
